Publication PMC9444293 (Investigative Radiology, 2022)
Read-outs that look alike come from different tables or passages of the source. Marks after values point to notes of the source that are not given here.

Tests used:
[1] = format: physicochemical; conditions: after 3 days
[2] = HPLC-ICP-MS analysis of rat urine for metabolites; format: in vivo; conditions: rat urine up to 6 hours after single IV 0.1 mmol Gd/kg bw
[3] = system: GS9L (rat glioblastoma) brain tumors; test: Contrast-enhanced MRI of GS9L brain tumors in rats; format: in vivo; conditions: GS9L rats n = 4, 1.5 T, 5 minutes p.i., both 0.1 mmol Gd/kg bw, intraindividual
[4] = Solubility in buffer solution; format: physicochemical; conditions: buffer 10 mM Tris-HCl, pH 7.4, room temperature (20°C), 24 hours
[5] = system: plasma proteins; test: Protein binding in rat plasma, equilibrium dialysis; format: in vitro ADME; conditions: 3 μmol Gd/L, 37°C, 2 hours
[6] = IV 0.1 mmol Gd/kg bw
[7] = system: rat hepatocytes; test: Metabolism in rat hepatocytes; format: in vitro ADME; conditions: 2.5 μmol/L (10 μmol Gd/L), 4 hours
[8] = Partition coefficient; format: physicochemical; conditions: pH 7.4, room temperature
[9] = Nuclear magnetic relaxation dispersion; format: physicochemical; conditions: 37°C
[10] = Osmolality of the formulation; format: physicochemical; conditions: formulation 0.3 mol Gd/L
[11] = Viscosity of the formulation; format: physicochemical; conditions: formulation 0.3 mol Gd/L
[12] = Blood-to-plasma partition ratio; format: in vitro ADME; conditions: 6 human donors, 0.25 mmol Gd/L, 60 minutes, 37°C, mean ± SD
[13] = system: plasma proteins; test: Protein binding in human plasma, equilibrium dialysis; format: in vitro ADME; conditions: 3 μmol Gd/L, 37°C, 2 hours
[14] = system: human hepatocytes; test: Metabolism in human hepatocytes; format: in vitro ADME; conditions: 2.5 μmol/L (10 μmol Gd/L), 4 hours
[15] = r1-relaxivity at 3.0 T in human plasma; format: physicochemical; conditions: for r1-Relaxivity in Human Plasma at 37°C, 3.0 T (per Gd): pH 7.4, per Gd; for r1-Relaxivity in Human Plasma at 37°C, 3.0 T (per molecule): pH 7.4, per molecule
[16] = r1-relaxivity at 1.41 T; format: physicochemical, human; conditions: for r1-Relaxivity in Human Plasma at 37°C, 1.5 T (per molecule): pH 7.4, per molecule
[17] = Number of inner sphere water molecules; format: physicochemical; conditions: per Gd
[18] = format: physicochemical; conditions: 37°C, pH 7.4, 21 days (3 weeks)
[19] = rat
[20] = rat, 3-compartment model, listed as BAY 1747846
[21] = 7 days after single IV 0.1 mmol Gd/kg bw
[22] = 7 days after single IV 0.1 mmol Gd/kg bw, LLOQ 0.05

## CC(C(=O)NCC(=O)NCC(CNC(=O)CNC(=O)C(C)N1CCN(CC(=O)[O-])CCN(CC(=O)[O-])CCN(CC(=O)[O-])CC1)(CNC(=O)CNC(=O)C(C)N1CCN(CC(=O)[O-])CCN(CC(=O)[O-])CCN(CC(=O)[O-])CC1)CNC(=O)CNC(=O)C(C)N1CCN(CC(=O)[O-])CCN(CC(=O)[O-])CCN(CC(=O)[O-])CC1)N1CCN(CC(=O)[O-])CCN(CC(=O)[O-])CCN(CC(=O)[O-])CC1.[Gd+3].[Gd+3].[Gd+3].[Gd+3] (stereo not shown) [Gadoquatrane, tetragadolinium [4,10-bis(carboxylatomethyl)-7-{3,6,12,15-tetraoxo-16-[4,7,10-tris-(carboxyl-atomethyl)-1,4,7,10-tetraazacyclododecan-1-yl]-9,9-bis({[({2-[4,7,10-tris-(carboxylatomethyl)-1,4,7,10-tetraazacyclododecan-1-yl]propanoyl}amino)acetyl]-amino}methyl)-4,7,11,14-tetraazahepta-decan-2-yl}-1,4,7,10-tetraazacyclododecan-1-yl]acetate]
[1]
  Decrease of the T1 relaxation rates (R1) in zinc transmetallation assay: no Gd^3+ release
[1]; listed as gadoquatrane
  Decrease of the T1 relaxation rates (R1) in zinc transmetallation assay: no change
[2]
  Metabolic stability / formation of metabolites in urine: high metabolic stability and no hint of formation of metabolites
[3]
  CNR (tumor-to-brain) compared with gadobutrol: clearly higher CNR
[4]
  Solubility: 1.43 mol Gd/L
[5]
  Free fraction in plasma (fraction unbound): 93%
[6]; rat plasma
  AUC^∞: 183 ± 11 (5.8%) μmol·h/L
  γ-AUC: 1 % of AUC^∞
[6]; rat plasma, listed as BAY 1747846
  γ-AUC: 1.2 % of AUC^∞
[6]; rat
  Clplasma: 0.55 ± 0.03 (5.8%) L/h/kg
  Vss: 0.33 ± 0.05 (14%) L/kg
[6]; rat, 3-compartment model, mean estimate ± SD (CV%)
  α t1/2: 6.3 ± 1.5 (24%) min
[6]; [20]
  β t1/2: 25 ± 1.6 (6.4%) min
  γ t1/2: 13 ± 2.9 (22%) h
[7]
  In vitro uptake or metabolic degradation in hepatocytes: No in vitro uptake or metabolic degradation
[8]
  Log P (1-Butanol/Buffer): −4.32
[9]; human plasma, up to 200 MHz (4.7 T)
  NMRD r1-relaxivity per Gd, fold higher compared with gadobutrol, in human plasma: 2 fold
[9]; water, 20–200 MHz (0.47–4.7 T)
  NMRD r1-relaxivity per Gd, fold higher compared with gadobutrol, in water: ~ 3 fold
[10]
  Osmolality at 37°C: 294 (iso-osmolar to blood) mosmol/kg H2O
[10]; listed as gadoquatrane
  Osmolality at 37°C: 294 mosmol/kg H2O
[11]
  Viscosity at 37°C: 1.22 mPa·s
[12]
  Blood-to-plasma ratio: 0.62 ± 0.06
[13]
  Free fraction in plasma (fraction unbound): 96%
[14]
  In vitro uptake or metabolic degradation in hepatocytes: No in vitro uptake or metabolic degradation
[15]
  r1-Relaxivity in Human Plasma at 37°C, 3.0 T (per Gd): 10.5 ± 0.3 mM⁻¹ s⁻¹
  r1-Relaxivity in Human Plasma at 37°C, 3.0 T (per molecule): 41.9 ± 0.6 mM⁻¹ s⁻¹
[15]; listed as gadoquatrane
  r1-Relaxivity in Human Plasma at 37°C, 3.0 T (per Gd): 10.5 mM⁻¹ s⁻¹
  r1-Relaxivity in Human Plasma at 37°C, 3.0 T (per molecule): 41.9 mM⁻¹ s⁻¹
[16]; 60 MHz (1.41 T), 37°C, pH 7.4, per Gd, mean ± SD, n = 6 batches
  r1-Relaxivity in Human Plasma at 37°C, 1.5 T (per Gd): 11.8 ± 0.3 mM⁻¹ s⁻¹
[16]; 60 MHz (1.41 T), 37°C
  r1-Relaxivity in Human Plasma at 37°C, 1.5 T (per molecule): 47.2 ± 1.0 mM⁻¹ s⁻¹
[16]; 60 MHz (1.41 T), 37°C, listed as gadoquatrane
  r1-Relaxivity in Human Plasma at 37°C, 1.5 T (per molecule): 47.2 mM⁻¹ s⁻¹
[16]; human plasma, per Gd, vs established (m)GBCAs
  r1-relaxivity in human plasma, fold higher per Gd compared with established GBCAs: more than 2 fold
[17]
  No. Inner Sphere Water Molecules (q): q = 1
[17]; listed as gadoquatrane
  No. Inner Sphere Water Molecules (q): 1
[18]
  Total Gd release after 21 days in human serum: no release of Gd^3+
[19]; [21]
  Gadolinium concentration, Bone marrow: 0.413 ± 0.048 nmol Gd/g wet tissue
  Gadolinium concentration, Carcass: 0.693 ± 0.126 nmol Gd/g wet tissue
  Gadolinium concentration, Heart: 0.133 ± 0.014 nmol Gd/g wet tissue
  Gadolinium concentration, Intestine: 0.316 ± 0.120 nmol Gd/g wet tissue
  Gadolinium concentration, Kidney: 20.3 ± 1.37 nmol Gd/g wet tissue
  Gadolinium concentration, Liver: 0.564 ± 0.065 nmol Gd/g wet tissue
  Gadolinium concentration, Lung: 0.359 ± 0.024 nmol Gd/g wet tissue
  Gadolinium concentration, Mesenterial lymph nodes: 1.20 ± 0.336 nmol Gd/g wet tissue
  Gadolinium concentration, Muscle: 0.119 ± 0.021 nmol Gd/g wet tissue
  Gadolinium concentration, Skin: 0.271 ± 0.044 nmol Gd/g wet tissue
  Gadolinium concentration, Spleen: 0.654 ± 0.175 nmol Gd/g wet tissue
  Gadolinium concentration, Stomach: 0.182 ± 0.023 nmol Gd/g wet tissue
[19]; [22]
  Gadolinium concentration, Blood: <0.05* nmol Gd/g wet tissue
  Gadolinium concentration, Brain: <0.08‡ nmol Gd/g wet tissue
[19]; femur, 7 days after single IV 0.1 mmol Gd/kg bw
  Gadolinium concentration, Bone: 0.470 ± 0.201 nmol Gd/g wet tissue
[19]; in vivo, iv
  Amount of Gd recovered in Feces, 0–5 d: 1.35% ± 0.6%
  Amount of Gd recovered in Urine, 0–1 d: 96.4% ± 3.8%
  Amount of Gd recovered in Urine, 0–5 d: 96.9% ± 3.7%
  Total recovery of Gd, 0–7 d: 98.8% ± 6.2%
[19]; single IV 0.1 mmol Gd/kg bw
  Excreted within 7 days: > 99 % of the injected dose
